Assay [1] deals with affinity-purified polyclonal antibody specific for MAA adducts. Description: Competitive ELISA: inhibition of MAA-specific antibody binding to solid-phase BSA-MAA. On the set-up: species or system rabbit. The note with it: for 50% inhibitory concentration: bovine serum albumin-MAA as solid phase antigen. The source says: A competitive ELISA was developed in order to detect the presence and to quantify the level of MDA/acetaldehyde modified proteins. Following the basic methodology developed by Roberts, et al, “A Sensitive Immunochemical Assay for Acetaminophen-Protein Adducts”, J Pharmacol Exp Ther, 1987; 241:527-533; Pumford, et al, “Immunochemical Quantitation of 3-(cystein-S-yl)Acetaminophen Adducts in Serum and Liver Proteins of Acetaminophen-Treated Mice”, J Pharmacol Exp Ther, 1989; 248:190-196, incorporated herein by reference, these assays were conducted by allowing a limiting amount of antibody to react with inhibitor, either standard or unknown, in the presence of excess solid phase antigen (MDA/acetaldehyde modified proteins). […] Biotinylated antibody (1/500 final dilution) was incubated with varying concentrations of test samples (standards or unknowns) overnight at 4° C., and then a 100 μl-aliquot of each sample was added to duplicate wells of the coated plates and incubated for 45 minutes at 37° C. After washing, 100 μl of alkaline phosphatase-conjugated streptavidin was added, and procedures as described above for the Direct ELISA were used to obtain optical density measurements. […] [formula]
where ODmax is OD in the absence of inhibitor, BKG is OD from nonspecific absorption of assay reagents and ODsample is the OD for a given concentration of standard or unknown sample.
An immunological assay, using an affinity-purified polyclonal antibody specific for MAA adducts, was employed to detect the presence of these adducts in livers of ethanol-fed rats. Since MAA adducts are likely composed of more than one distinct product, applicants proposed that 4-methyl-1,4-dihydropyridine-3,5-dicarbaldehyde (MDDC), derivatized to an ε-amino group of lysine, represents a structure for one of the major MAA-protein adducts. The purpose of this study was to characterize the antigen binding properties of the MAA specific antibody and determine whether MDDC epitopes are a major determinant of antibody recognition. A competitive ELISA, utilizing bovine serum albumin-MAA as the solid phase antigen, was used to test the binding specificity of the antibody.
On the technique in general: In an ELISA, binding on a coated surface is turned into a signal by an enzyme label.

In assay [2] the target is T1, bovine serum albumin (BSA) (Bos taurus, UniProt P02769).
T1 construct: purchased Sigma Chemical Co. (St. Louis, Mo.)
Description: Stable binding of acetaldehyde to proteins in the presence of MDA. The format is biochemical. Particulars: acetaldehyde 1 mM, 24 hours of incubation, 4-fold molar excess of MDA. Here is the method: Concentrations of acetaldehyde (0.1 mM or 1.0 mM) were incubated with various protein solutions in the absence and presence of varying concentrations of MDA. Incubations were conducted in phosphate buffer (0.1 M, pH 7.4) at 37° C. in polypropylene vessels that were sealed to minimize the loss of volatile radioactivity. The reactions were performed under nitrogen gas in the dark. During a 72-hr incubation period, aliquots were removed for stable acetaldehyde binding determinations and fluorescence measurements as previously described. Hoffmann, “Reaction of Acetaldehyde with Proteins: Formation of Stable Fluorescent Adducts”, Alcohol Clin Exp Res, 1993; 17:69-74. Briefly, postincubation, free and unstable-bound acetaldehyde were separated by exhaustive dialysis against phosphate buffer for 24 hours at 4° C. Radioactivity was then measured in the retenate and represented stably bound acetaldehyde. Results are expressed as nmoles acetaldehyde bound per mg of protein. Fluorescence measurements were obtained on post-dialysis samples using a Perkin Elmer LS-5B spectrophotofluorometer attached to a Perkin Elmer GP-100 graphics printer.
When acetaldehyde (1 mM) was incubated with bovine serum albumin (BSA) in the presence of varying concentrations of MDA over a 72-hour time course, MDA markedly stimulated the binding of acetaldehyde to BSA in a concentration-dependent manner. […]

Another assay concerns Balc/c mice. Kind of assay: Immunization of mice with BSA or BSA-MAA, antiserum titration by ELISA. The format is in vivo. Particulars: antiserum tested on MSA and MSA-MAA. As to the method: The purpose of this study was to determine how modification of a soluble carrier protein with the MAA adduct alters the humoral immune response. Balc/c mice were immunized weekly by i.p. injection with 100 μg of either bovine serum albumin unmodified (BSA) or modified with MAA (BSA-MAA). Titration of antiserum was performed by ELISA on wells coated with either BSA, BSA-MAA, mouse albumin (MSA) and MSA-MAA. […] In mice immunized with lower concentrations of BSA-MAA, antibody titers decreased in a dose dependent manner to both BSA and BSA-MAA (>1:3200 at 100 μg to 1:2000 at 25 μg).

T1 sequence (P02769 25-607): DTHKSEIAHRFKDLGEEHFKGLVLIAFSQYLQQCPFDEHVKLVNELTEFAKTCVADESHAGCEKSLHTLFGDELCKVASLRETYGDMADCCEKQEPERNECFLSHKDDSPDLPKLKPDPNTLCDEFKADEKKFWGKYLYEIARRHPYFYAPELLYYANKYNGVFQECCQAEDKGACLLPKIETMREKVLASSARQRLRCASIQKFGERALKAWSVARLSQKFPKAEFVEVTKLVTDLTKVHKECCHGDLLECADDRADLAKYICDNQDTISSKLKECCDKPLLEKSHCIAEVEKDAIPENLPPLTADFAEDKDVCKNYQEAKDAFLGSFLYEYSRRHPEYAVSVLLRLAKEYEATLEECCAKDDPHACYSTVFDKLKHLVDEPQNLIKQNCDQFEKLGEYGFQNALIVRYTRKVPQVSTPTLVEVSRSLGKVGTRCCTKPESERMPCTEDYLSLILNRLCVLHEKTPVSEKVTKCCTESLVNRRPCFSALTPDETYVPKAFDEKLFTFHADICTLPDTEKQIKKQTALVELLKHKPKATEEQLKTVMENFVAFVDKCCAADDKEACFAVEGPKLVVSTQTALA

The molecule `CCCCCCN1C=C(C=O)C(C)C(C=O)=C1` [1-hexyl-MDDC] gave a 50% inhibitory concentration in assay [1] of 4 pmoles/well.

For the molecule `Cc1ncc(CO)c(C=O)c1O` [pyridoxal, reference compound], the “inhibition of antibody binding” value in assay [1] is given as “negligible inhibitions”.

In assay [1], `CC1C(C=O)=CNC=C1C=O` [1-hydrogen MDDC, 4-methyl-1,4-dihydropyridine-3,5-dicarbaldehyde] yielded a 50% inhibitory concentration of 240 pmoles/well.

As to `O=CCC=O` [MDA, malondialdehyde], the “stimulation of acetaldehyde binding to BSA” value in assay [2] is listed as 13 fold.

In turn, `CC1C(C=O)=CN(C)C=C1C=O` [1-methyl MDDC] registered a 50% inhibitory concentration in assay [1] of 14 pmoles/well.

`NC(=O)C1=CN([C@@H]2O[C@H](COP(=O)(O)OP(=O)(O)OC[C@H]3O[C@@H](n4cnc5c(N)ncnc54)[C@H](O)[C@@H]3O)[C@@H](O)[C@H]2O)C=CC1` [NADH, reference compound]: the “inhibition of antibody binding” value in assay [1] is “negligible inhibitions”.

Turning to “BSA-MAA: bovine serum albumin modified with MAA (malondialdehyde-acetaldehyde adduct)”, in the assay with Balc/c mice, the “antibody titer to the MAA adduct (tested on MSA-MAA)” value was “significant antibody titer” and the “response to the autologous protein (MSA)” value was “no response”.
